Data published in patent publication US12173007B2, “Imidazopyridazine IL-17 inhibitor compounds” (Janssen Pharmaceutica NV, priority 2021, dated 2024).

Columns and labels:
[1] = biological target: IL-17A(FLAG-Tagged): IL-17RA(His-Tagged) binding (Homo sapiens, UniProt Q16552, K93Q); test: IL-17A(FLAG-tagged):IL-17RA(His-tagged) binding disruption Eu-HTRF assay, Protocol 2; settings: FLAG-IL-17A 1 nM; average if tested more than once
Description: IL-17A(FLAG-Tagged): IL-17RA(His-Tagged) Binding Disruption Eu-HTRF Assay
An antibody directed against the FLAG tag of IL-17A (SEQ ID NO: 1) is labeled with the HTRF donor chromophore (Europium-cryptate). IL-17A is present as a dimer that is “locked into” this quaternary structure due to the formation of loop-spanning […] disulfide bridges. The construct of IL-17RA used in the assay excludes the […] portion of the receptor and is fused to a C-terminal 10×His tag (SEQ ID NO:2). An antibody directed against the His tag of the IL-17RA chimera is labeled with the HTRF acceptor chromophore (“D2”). The fluorescence-resonance energy transfer (FRET) depends on the vicinity of the donor chromophore to the acceptor, and interruption of the binding between the IL-17A and IL-17RA causes the reduction/loss of FRET. Therefore, this assay allows to evaluate the compound effect on the binding IL-17A and IL-17RA by monitoring the fluorescence intensity of donor vs acceptor. The assay was run using either Protocol 1 or Protocol 2 as described below.
Protocol 2. 40 nl of 2-fold serial diluted compound solution for total 22 dilution points is added into each well of a 1536-well, white, low-volume, non-binding plate (Greiner #782904), then 2 μl of FLAG tagged IL-17A at 2×final concentration (1 nM) in solution of PBS+0.01% Triton-X100 is added to each well. The assay plate is briefly centrifuged then incubated for 1 h at rt. A mixed solution is prepared containing 2×5 nM 10HIS×IL-17RA, 2×2.5 nM Eu-anti-FLAG (CISBIO), 2×5 nM D2-anti-HIS (CISBIO) in PBS+0.01% Triton-X100+200 mM Potassium Fluoride (Sigma 60238) and 2 μl of mix is added to each well of the assay plate. The plate is briefly centrifuged then incubated for 2 h at rt. The HTRF intensities at the wavelength of donor (615 nm) and acceptor (665 nm) are measured using BMG Pherastar. The ratio between intensities at two wavelengths is calculated and plotted against the compound concentration and the data is fitted to a one-site competition model to yield IC50 of the compound.

[2] = test system: IL-17A-induced G-CSF production in human normal keratinocyte (NHK); test: NHK assay: IL-17A-induced G-CSF production in normal human keratinocytes; format: cell-based; settings: 24 h, IL-17A 5 ng/mL, G-CSF by HTRF, average if tested more than once
Procedure: IL-17A acts directly on keratinocytes through binding to dimeric receptor IL-17RA/RC and drives the production of a number of inflammatory mediators known to be elevated in psoriasis lesional tissue. IL-17A small molecule inhibitors that block the IL-17A to interact with IL-17R would inhibit the IL-17A signaling in its targeted cells such as keratinocytes. The compound functional activity is evaluated for its impact on IL-17A-induced G-CSF production in human normal keratinocyte (NHK).
Adult normal human keratinocytes are cultured in keratinocyte growth medium (Lonza) in a flask till reaching ˜90% confluence, then cells are transferred to a 384-well plate at density of 3000-4000 cell/well. Recombinant human IL-17A (Gibco PHC9174) is pre-incubated with titrated compound or DMSO for 1 h at rt then added to the cell culture plate. The final concentration of IL-17A is 5 ng/mL and DMSO is 0.2%, in the culture containing 5% FBS. Cells are cultured/treated for 24 h at 37° C. Supernatants are collected and G-CSF production is measured through HTRF technology using Human G-CSF Kit (CisBio). G-CSF concentration was extrapolated from the standard curve and IC50 is determined using GraphPad Prism. Cell viability is also evaluated using CellTiter-Glo kit (Promega) and effect of compound on cell viability is compared to DMSO control.

UniProt Q16552, sequence (Q16552 with tags, fused parts or gaps K93Q): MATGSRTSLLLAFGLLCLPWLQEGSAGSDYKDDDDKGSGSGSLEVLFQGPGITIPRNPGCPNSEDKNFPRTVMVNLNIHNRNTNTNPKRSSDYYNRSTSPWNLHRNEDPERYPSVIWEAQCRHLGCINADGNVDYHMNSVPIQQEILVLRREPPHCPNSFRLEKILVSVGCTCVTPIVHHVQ

| Compound | IC50 [1] | IC50 ([2]; Homo sapiens, Keratinocyte) | IC50 [2] |
| --- | --- | --- | --- |
| COc1nonc1C(=O)N[C@@H](CCC(C)(C)C(F)(F)F)c1cn2ncc(CN3C[C@H]4[C@@H](CNC3=O)C4(F)F)cc2n1 (relative stereo) [Example 117, N—((S)-1-(7-(((1R*,7S*)-8,8-Difluoro-4-oxo-3,5-diazabicyclo[5.1.0]octan-3-yl)methyl)imidazo[1,2-b]pyridazin-2-yl)-5,5,5-trifluoro-4,4-dimethylpentyl)-4-methoxy-1,2,5-oxadiazole-3-carboxamide] | < 50 nM | < 50 nM |  |
| CC(C)(CC[C@H](NC(=O)c1nonc1C1CC1)c1cn2ncc(CN3C[C@@H]4[C@H](CNC3=O)C4(F)F)cc2n1)C(F)(F)F (relative stereo) [Example 118, 4-Cyclopropyl-N—((S)-1-(7-(((1S*,7R*)-8,8-difluoro-4-oxo-3,5-diazabicyclo[5.1.0]octan-3-yl)methyl)imidazo[1,2-b]pyridazin-2-yl)-5,5,5-trifluoro-4,4-dimethylpentyl)-1,2,5-oxadiazole-3-carboxamide] | < 50 nM | > 100 nM |  |
| CC(C)(CC[C@H](NC(=O)c1nonc1C1CC1)c1cn2ncc(CN3C[C@H]4[C@@H](CNC3=O)C4(F)F)cc2n1)C(F)(F)F (relative stereo) [Example 119, 4-Cyclopropyl-N—((S)-1-(7-(((1R*,7S*)-8,8-difluoro-4-oxo-3,5-diazabicyclo[5.1.0]octan-3-yl)methyl)imidazo[1,2-b]pyridazin-2-yl)-5,5,5-trifluoro-4,4-dimethylpentyl)-1,2,5-oxadiazole-3-carboxamide] | < 50 nM | < 50 nM |  |
| Cc1nonc1C(=O)N[C@@H](CCC(C)(C)C(F)(F)F)c1cn2ncc(CN3C[C@@H]4[C@H](CNC3=O)C4(F)F)cc2n1 (relative stereo) [Example 120, N—((S)-1-(7-(((1S*,7R*)-8,8-Difluoro-4-oxo-3,5-diazabicyclo[5.1.0]octan-3-yl)methyl)imidazo[1,2-b]pyridazin-2-yl)-5,5,5-trifluoro-4,4-dimethylpentyl)-4-methyl-1,2,5-oxadiazole-3-carboxamide] | > 100 nM | > 100 nM |  |
| Cc1nonc1C(=O)N[C@@H](CCC(C)(C)C(F)(F)F)c1cn2ncc(CN3C[C@H]4[C@@H](CNC3=O)C4(F)F)cc2n1 (relative stereo) [Example 121, N—((S)-1-(7-(((1R*,7S*)-8,8-Difluoro-4-oxo-3,5-diazabicyclo[5.1.0]octan-3-yl)methyl)imidazo[1,2-b]pyridazin-2-yl)-5,5,5-trifluoro-4,4-dimethylpentyl)-4-methyl-1,2,5-oxadiazole-3-carboxamide] | < 50 nM | < 50 nM |  |
| COC[C@H](c1cnn2cc([C@H](CCC(C)(C)C(C)(F)F)NC(=O)c3nonc3C)nc2c1)N1CC(F)(F)CNC1=O (relative stereo) [Example 133, N—((S*)-1-(7-((S)-1-(5,5-Difluoro-2-oxotetrahydropyrimidin-1(2H)-yl)-2-methoxyethyl)imidazo[1,2-b]pyridazin-2-yl)-5,5-difluoro-4,4-dimethylhexyl)-4-methyl-1,2,5-oxadiazole-3-carboxamide] | < 50 nM | < 50 nM |  |
| [2H]C1([2H])NC(=O)N([C@H](COC2CC2)c2cnn3cc([C@@H](NC(=O)c4nonc4C)C4CCC(F)(F)CC4)nc3c2)C([2H])([2H])C1(F)F (single isomer, unassigned) [Example 40] | < 50 nM | < 50 nM |  |
| COC[C@H](c1cnn2cc(C(CCC(C)(C)C(F)(F)F)NC(=O)c3nonc3C)nc2c1)N1CC(F)(F)CNC1=O (single isomer, unassigned) [Example 45, N—((S*)-1-(7-((S)-1-(5,5-Difluoro-2-oxotetrahydropyrimidin-1(2H)-yl)-2-methoxyethyl)imidazo [1,2-b]pyridazin-2-yl)-5,5,5-trifluoro-4,4-dimethylpentyl)-4-methyl-1,2,5-oxadiazole-3-carboxamide] | < 50 nM | < 50 nM |  |
| Cc1nonc1C(=O)N[C@H](c1cn2ncc(C(C3CCOCC3)N3CC(F)(F)CNC3=O)cc2n1)C1CCC(F)(F)CC1 (single isomer, unassigned) [Example 59, N—((S)-(7-((R*)-(5,5-Difluoro-2-oxotetrahydropyrimidin-1(2H)-yl)(tetrahydro-2H-pyran-4-yl)methyl)imidazo[1,2-b]pyridazin-2-yl)(4,4-difluorocyclohexyl)methyl)-4-methyl-1,2,5-oxadiazole-3-carboxamide] | < 50 nM | < 50 nM |  |
| COC[C@H](c1cnn2cc(C(CC(C)(C)C(C)(F)F)NC(=O)c3nonc3C3CC3)nc2c1)N1CC(F)(F)CNC1=O (single isomer, unassigned) [Example 68, 4-Cyclopropyl-N—((S*)-1-(7-((S)-1-(5,5-difluoro-2-oxotetrahydropyrimidin-1(2H)-yl)-2-methoxyethyl)imidazo[1,2-b]pyridazin-2-yl)-4,4-difluoro-3,3-dimethylpentyl)-1,2,5-oxadiazole-3-carboxamide] | < 50 nM | < 50 nM |  |
| COC[C@H](c1cnn2cc(C(CCC3(C(F)(F)F)CC3)NC(=O)c3nonc3C)nc2c1)N1CC(F)(F)CNC1=O (single isomer, unassigned) [Example 125, N—((R*)-1-(7-((S)-1-(5,5-Difluoro-2-oxotetrahydropyrimidin-1(2H)-yl)-2-methoxyethyl)imidazo[1,2-b]pyridazin-2-yl)-3-(1-(trifluoromethyl)cyclopropyl)propyl)-4-methyl-1,2,5-oxadiazole-3-carboxamide] | > 100 nM | > 100 nM |  |
| COC[C@H](c1cnn2cc(C(CCC3(C(F)(F)F)CC3)NC(=O)c3nonc3C)nc2c1)N1CC(F)(F)CNC1=O (single isomer, unassigned) [Example 126, N—((S*)-1-(7-((S)-1-(5,5-Difluoro-2-oxotetrahydropyrimidin-1(2H)-yl)-2-methoxyethyl)imidazo[1,2-b]pyridazin-2-yl)-3-(1-(trifluoromethyl)cyclopropyl)propyl)-4-methyl-1,2,5-oxadiazole-3-carboxamide] | < 50 nM |  | < 50 nM |
| COC[C@H](c1cnn2cc([C@@H](NC(=O)c3nonc3C3CC3(F)F)C3CCC(F)(F)CC3)nc2c1)N1CC(F)(F)CNC1=O (single isomer, unassigned) [Example 128, N—((S)-(7-((S)-1-(5,5-Difluoro-2-oxotetrahydropyrimidin-1(2H)-yl)-2-methoxyethyl)imidazo[1,2-b]pyridazin-2-yl)(4,4-difluorocyclohexyl)methyl)-4-((R*)-2,2-difluorocyclopropyl)-1,2,5-oxadiazole-3-carboxamide] | < 50 nM | < 50 nM |  |
| COC[C@H](c1cnn2cc([C@@H](NC(=O)c3nonc3C3CC3(F)F)C3CCC(F)(F)CC3)nc2c1)N1CC(F)(F)CNC1=O (single isomer, unassigned) [Example 129, N—((S)-(7-((S)-1-(5,5-Difluoro-2-oxotetrahydropyrimidin-1(2H)-yl)-2-methoxyethyl)imidazo[1,2-b]pyridazin-2-yl)(4,4-difluorocyclohexyl)methyl)-4-((S*)-2,2-difluorocyclopropyl)-1,2,5-oxadiazole-3-carboxamide] | < 50 nM |  | < 50 nM |
